# Structures can show the parent of a compound that is named as a salt.
# System: human prostate tissue
# Assay: Inhibition of phenylephrine-induced contraction of human prostate tissue strips
# Settings: dose-ratio method
# Description: Methods: Prostatic adenomas were obtained at the time of surgery from patients with symptomatic BPH. These were cut into longitudinal strips of 15 mm long and 2-4 mm wide, and suspended in 5 ml organ baths containing Krebs buffer (pH 7.4). The baths were maintained at 37° C. and continuously oxygenated with 5% CO2 and 95% O2. Isometric tension was measured with a Grass Instrument FT03 force transducer interfaced with a computer.
# Tissue strips were contracted with varying concentrations of phenylephrine after incubating for 20 minutes in the absence and presence of at least three different concentrations of antagonist. Dose-response curves for phenylephrine were constructed, and the antagonist potency (pA2) was estimated by the dose-ratio method. […] This control was necessary to account for losses of antagonist due to adsorption to the tissue bath and/or metabolism during the time the antagonists were equilibrated with the prostate tissue.
row,Compound,Human Prostate (pA)
1,"4-fluoro-4-(8-fluoro-1,3,4,5-tetrahydro-2H-pyrido[4,3-b]indol-2-yl)butyrophenone hydrochloride [Compound A-30360]",8.72
2,"COc1cc2nc(N3CCN(C(=O)C4CCCO4)CC3)nc(N)c2cc1OC (stereo not shown) [Terazosin, 2[4-(Tetrahydro-2-furoyl)piperazinyl]-4-amino-6,7-dimethoxyquinazoline hydrochloride]",7.30
3,COc1cc2nc(N3CCN(C(=O)c4ccco4)CC3)nc(N)c2cc1OC [Prazosin],9.08
4,"COc1ccccc1N1CCN(CCCNc2c(C)c(=O)n(C)c(=O)n2C)CC1 [5-Methyl Urapidil, 5-methylurapidil]",8.38
5,O=C(NC1CCN(CCc2c[nH]c3ccccc23)CC1)c1ccccc1 [Indoramin],7.86
6,"O=C(CCCN1CCC(NC(=O)c2ccccc2)CC1)c1ccc(Cl)cc1 [Compound 7, 1-[3-(4-chlorobenzoyl)propyl]-4-benzamidopiperidine]",7.63
7,"O=C(CCCN1CCC(NC(=O)c2ccccc2)CC1)c1ccccc1 [Compound 9, 1-(3-benzoylpropyl)-4-benzamidopiperidine]",7.41
8,"C=Cc1sc2ccc(Cl)c3c2c1CN(C)CC3 [SKF-104856, 7-Chloro-2-ethenyl-3,4,5,6-tetrahdyro-4-methylthieno[4,3,2-ef][3]benzazepine]",7.66

# Molecular target: T1, α1c receptor (Bos taurus, UniProt P18130)
# T1 sequence (P18130 1-466): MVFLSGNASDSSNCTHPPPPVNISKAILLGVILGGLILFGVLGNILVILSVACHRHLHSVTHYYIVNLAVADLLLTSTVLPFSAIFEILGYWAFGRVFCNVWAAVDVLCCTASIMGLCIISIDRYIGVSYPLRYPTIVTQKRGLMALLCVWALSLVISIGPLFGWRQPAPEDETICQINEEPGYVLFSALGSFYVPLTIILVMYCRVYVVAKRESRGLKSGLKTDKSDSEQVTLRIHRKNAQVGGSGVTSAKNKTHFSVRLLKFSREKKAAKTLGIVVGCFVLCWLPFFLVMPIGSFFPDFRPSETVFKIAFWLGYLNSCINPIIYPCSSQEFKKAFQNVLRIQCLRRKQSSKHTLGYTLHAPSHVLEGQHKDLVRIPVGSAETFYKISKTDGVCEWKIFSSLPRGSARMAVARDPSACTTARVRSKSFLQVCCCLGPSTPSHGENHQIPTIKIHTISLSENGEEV
# Assay: not given
# Settings: expressed α1c receptor; cited from earlier work
row,Compound,fold higher affinity than the α1b-receptor
1,Cc1ccc(N(CC2=NCCN2)c2cccc(O)c2)cc1 [phentolamine],30 fold

# System: not given
# Assay: not given
# Settings: not given
row,Compound,melting point
1,"O=C(CCCN1CCC(NC(=O)c2ccccc2)CC1)c1ccc(Cl)cc1 (as salt: HCl) [Compound 7, 1-[3-(4-chlorobenzoyl)propyl]-4-benzamidopiperidine]",243 to 244 °C
